Reference: US10632127B2, “Targeted notch pathway inhibitors” (Hoffmann-La Roche Inc., priority 2015, dated 2020)
Where a name gives a salt, the structure may show the parent alone. Read-outs that look alike come from different tables or passages of the source.

Key:
EC219 cells = test: Extracellular release of the γ-secretase inhibitor from prodrugs by EC219 endothelial cells; type: in vitro ADME, rat; settings: HEK293, 215/F2, HK2 and EC219 cells, 20 μM in PBS, 19 h
Description: FIG. 2A. Extracellular release of amine-SecrI (11a) metabolites for α-Glu- and γ-Glu-secretase inhibitor prodrugs. The prodrugs were added to the cells for 19 h, then the supernatants were harvested and analyzed for SecrI (8), amine-SecrI (11a), the prodrugs 13a, 13b, 15a, 15b and (for 13a, 15a) also the correponding deacetylated metabolites.
Cpd added: 20 μM in PBS, 19 h incubation. SecrI (8) is stable when added to cells for 19 h; free SecrI (8) was never detected from any prodrug.
The preparation and characterization of rat brain-derived EC219 endothelial cells have been described in Juillerat-Jeanneret, L. et al. In Vitro Cell. Dev. Biol. 1992, 28A, 537-543. These cells express high levels of APA and γ-GT activities and can be used for determining kinetics in living cells, and were chosen as APA- and γ-GT-positive representative cell models. EC219 cells were grown in DMEM medium containing 1 g/l glucose, 10% heat-inactivated fetal calf serum (FCS, EuroClone, UK) supplemented with 100 U/mL penicillin and 100 μg/mL streptomycin (P/S) on uncoated cell culture plastic ware. The HEK293 and HK2 human kidney cells are available from the ATCC (American Tissue Culture Collection, Manassas, Va., USA). HEK293 cells were grown on uncoated cell culture plastic ware in Iscove modified Dulbecco medium (IMDM, Life Technologies) containing 10% FCS and P/S. HK2 cells were grown on uncoated cell culture plastic ware in DMEM/F-12 GlutaMAX medium (Gibco) containing 5% FCS, P/S, 1% ITS (1.0 mg/ml bovine insulin, 0.55 mg/ml human transferrin and 0.5 μg/ml sodium selenite, Sigma-Aldrich) and 5 ng/ml hydrocortisone. […] Then 75 μl of supernatant from each well was removed and the luciferase activity was determined by adding 25 μl of Steady-Glo luciferase assay reagent (Promega).
A first screen of the different γ-secretase prodrugs was performed in vitro to determine the cleavage rate of each compound and ex-vivo in mouse kidney tissues. Extracellular release of the γ-secretase inhibitor from prodrugs by human kidney cells (HEK293, HEK293-derived Notch-reporter 215/F2 cells28,39 and HK2 cells) as well as the rat brain-derived EC219 endothelial cells which express very high levels of APA and γ-GT activities were evaluated for liberating active inhibitors SecrI (8) or amine-SecrI (11a) (FIG. 2A).
All samples were analyzed using protein precipitation followed by LC-MS/MS analysis. […] One μL of the supernatant was analyzed by LC/MS. […]

[1] = target: Notch signal transduction pathway; test: In vitro Notch signal transduction pathway activity assay (DR215/F2 luciferase reporter); type: cell-based, human; settings: for IC50 for blockade of the Notch pathway, range in words: DR215/F2 cell reporter assay; for IC50: Homo sapiens, 215/F2 reporter cell line, 19 h, mean of at least 3 experiments
Description: The compounds were dissolved in dimethyl sulfoxide (DMSO) at 10 mM stock solution, aliquoted and stored at −4° C. until use, then diluted in PBS or cell culture medium. In the experimental settings, controls containing increasing concentrations of DMSO, corresponding to the amount of DMSO of the diluted compounds were always included. For in vivo experiments, the compounds were dissolved in 0.9% NaCl, incubated 30 min at 40° C. and sonicated for 5 min.
The requirement of proteolytic activation of the prodrugs to inhibit Notch cleavage by the γ-secretase, was investigated using a reporter assay (Table 3). The DR215/F2 cell line expresses a reporter construct designed to monitor the activity of the Notch signal transduction pathway. The DR215/F2 cell line 39 carries two transgenes: the firefly luciferase reporter gene expressed under the control of the Gal4 promoter and the human Notch1 activator gene fused with the yeast Gal4 transcription factor. This assay confirmed that the prodrugs were able to inhibit γ-secretase and the activation of the Notch pathway. The DR215/F2 cell reporter assay was also used to determine the IC50 for blockade of the Notch pathway by all the compounds designed and prepared.
The values were determined using the 215/F2 reporter cell line for Notch activation by the γ-secretase. All values are the mean of at least 3 experiments.
The preparation and characterization of rat brain-derived EC219 endothelial cells have been described in Juillerat-Jeanneret, L. et al. In Vitro Cell. Dev. Biol. 1992, 28A, 537-543. These cells express high levels of APA and γ-GT activities and can be used for determining kinetics in living cells, and were chosen as APA- and γ-GT-positive representative cell models. EC219 cells were grown in DMEM medium containing 1 g/l glucose, 10% heat-inactivated fetal calf serum (FCS, EuroClone, UK) supplemented with 100 U/mL penicillin and 100 μg/mL streptomycin (P/S) on uncoated cell culture plastic ware. The HEK293 and HK2 human kidney cells are available from the ATCC (American Tissue Culture Collection, Manassas, Va., USA). HEK293 cells were grown on uncoated cell culture plastic ware in Iscove modified Dulbecco medium (IMDM, Life Technologies) containing 10% FCS and P/S. HK2 cells were grown on uncoated cell culture plastic ware in DMEM/F-12 GlutaMAX medium (Gibco) containing 5% FCS, P/S, 1% ITS (1.0 mg/ml bovine insulin, 0.55 mg/ml human transferrin and 0.5 μg/ml sodium selenite, Sigma-Aldrich) and 5 ng/ml hydrocortisone. The human HEK293-derived DR215/F2 embryonic kidney cell line, stably transfected with pFR Luc and APP-Notch Gal (plasmid DR215) as described in WO 2006/061136 A2 and Brockhaus, M. Neuroreport 1998 9, 1481-1486, were maintained using IMDM with 10% FCS supplemented with P/S and kept under double-selection with 150 μg/ml G-418 and 50 μg/ml hygromycin B on coated (1:100 Poly-L-lysine) cell culture plastic ware. In this assay, the Notch-Gal4 protein is bound to the cell membrane via its trans-membrane domain. The Notch intracellular domain is released by proteolytic cleavage mediated by the γ-secretase and moves to the cell nucleus where it activates the reporter luciferase gene transcript. Inhibition of γ-secretase thus decreases luciferase activity. Briefly, cultures were grown in 96-well microplates to 80% confluence; the cells were then washed in PBS and exposed to decreasing concentrations of the γ-secretase-inhibitor analogues in complete IMDM culture medium without red phenol at 37° C. for 19 h. Then 75 μl of supernatant from each well was removed and the luciferase activity was determined by adding 25 μl of Steady-Glo luciferase assay reagent (Promega).

[2] = Pharmacokinetic assessment in C57BL/6 healthy wild-type mice (i.p.); type: in vivo, mouse; settings: C57BL/6 mice, 10 mg/kg i.p.
Description: For PK evaluation, the compounds were administered i.p to male C57BL/6 mice in suspension (gelatine/saline 7.5%/0.62% in water) using an administration volume of 4 mL/kg. Blood samples were collected in tubes containing EDTA, plasma was separated by centrifugation and stored at −80° C. Liver and kidney samples (˜100 mg aliquots) were homogenized in three volumes of water using Precellys tissue homogenization tubes (precellys.com). 25 μL of each tissue homogenate was further diluted with 25 μL blank plasma to produce the final tissue homogenate for extraction. All samples were analyzed using protein precipitation followed by LC-MS/MS analysis. Briefly, 50 μL plasma or final tissue homogenate were mixed with 50 μL 0.5M HClO4/acetonitrile 9/1 (containing 200 ng/mL internal standard bosentan). Samples were stirred and 300 μL water was added followed by centrifugation at 5600 rpm (4° C., 10 min). 10 μL supernatant was analyzed by LC/MS analysis. Calibration standards in plasma were prepared the same way. The LC column and conditions used were: Phenomenex, Polar RP, 4 μm, 50×2.1 mm at 0.4 mL/min flow rate with a 3 min gradient from 95% solvent A to 95% solvent B (Solvent A: Water/ACN/HCOOH, 90:10:0.1+10 mM NH4 formate; Solvent B: Water/ACN/HCOOH, 10:90:0.1+10 mM NH4 formate). Mass spectrometric conditions were: Thermo TSQ Vantage with positive heated electrospray ionization in MS/MS mode. Compounds mass transitions monitored were m/z 320.7 to 119.9. PK parameters for all studies were calculated using Phoenix WinNonlin Software.
We next determined the stability, tissue distribution and cleavage rate in plasma, liver and kidney of the designed prodrugs in non-diseased mice. In the in vivo screen, the kinetics and distribution of γ-secretase inhibitor prodrugs Ac-γ-Glu-SecrI (13a), Ac-α-Glu-SecrI (15a) and H-α-Glu-SecrI (15b) were compared with the active γ-secretase inhibitor amine-SecrI (11a). After i.p administration (10 mg/kg) in C57BL/6 mice, the disappearance of the prodrugs and the formation of the active amine-SecrI (11a) were compared in plasma, liver and kidney (Table 5). First, we determined the pharmacokinetics (PK) behavior of amine-SecrI (11a) following i.p. administration (Table 5A). […] Liver and kidney exposure were much higher, with approximately 4.5-fold higher exposure in liver compared to kidney. […] The selectivity towards kidney appeared to decrease over time, probably due to fast clearance and re-equilibration of the amine-SecrI (11a). However, the high selectivity at earlier time-points assured that the total exposure over time was much higher in the kidney compared to the liver.

γ-secretase = γ-secretase (Homo sapiens, UniProt P49768); test: In vitro γ-secretase activity assay (cell-free); type: biochemical; settings: HEK293 membrane fraction, recombinant APP substrate, Abeta ELISA
Description: The γ-secretase activity of the γ-secretase inhibiting alcohols of formula (A) of present invention was determined in cell-free in vitro assays where e.g., a cell lysate containing the γ-secretase complex is incubated with a suitable β-Amyloid Precursor Protein (APP)-derived substrate which is cleaved to the Abeta peptides. The amount of produced peptides can be determined with specific ELISA assays. Cell lines of neuronal origin secrete Abeta peptides which can be measured with the specific ELISA assay. Treatment with compounds which inhibit γ-secretase leads to a reduction of secreted Abeta thus providing a measure of inhibition.
The in vitro assay of γ-secretase activity uses a HEK293 membrane fraction as a source of γ-secretase and a recombinant APP substrate. Latter consist of the C-terminal 100 amino acids of human APP fused to a 6×Histidin tail for purification which is expressed in E. coli in a regulatable expression vector, e.g. pEt15. This recombinant protein corresponds to the truncated APP fragment which results after […] of the extracellular domain and which constitutes the γ-secretase substrate. […] The Abeta peptides which are produced by γ-secretase cleavage of the substrate are detected by specific ELISA assays as described (Brockhaus M et al, Neuroreport 9(7), 1481-1486 (1998).

hydrolysis by γ-GT (EC219 cells) | IC50 for blockade of the Notch pathway, range in words [1] | IC50 [1] [nM] | conversion to amine-SecrI (11a), in words [2] | Kidney concentration of administered compound ([2]; 4 h) | Plasma concentration of administered compound ([2]; 4 h) | Kidney concentration of administered compound ([2]; 7 h) | Plasma concentration of administered compound ([2]; 7 h) | concentration at 0.5 h ([2]; male, mouse, kidney, ip, read-out: Kidney concentration of administered compound) [ng/g] | concentration at 0.5 h ([2]; male, mouse, liver, ip, read-out: Liver concentration of administered compound) [ng/g] | concentration at 4 h ([2]; male, mouse, liver, ip, 4 h, read-out: Liver concentration of administered compound) [ng/g] | concentration at 7 h ([2]; male, mouse, liver, ip, 7 h, read-out: Liver concentration of administered compound) [ng/g] | concentration at 0.5 h ([2]; male, mouse, plasma, ip, read-out: Plasma concentration of administered compound) [ng/mL] | IC50 (γ-secretase) [nM] | SMILES
also not hydrolyzed by γ-GT | μM range | 1090 | – | – | – | – | – | – | – | – | – | – | – | C[C@H]1Oc2ccc(F)cc2N(CCOC(=O)NCCNC(=O)CC[C@H](N)C(=O)O)C(=O)[C@H]1NC(=O)[C@@](C)(O)C(=O)NCC(F)(F)C(F)(F)F [Compound 13b, (S)-2-Amino-5-(2-((2-((2R,3S)-7-fluoro-3-((S)-2-hydroxy-2-methyl-3-oxo-3-(2,2,3,3,3-pentafluoropropylamino)propanamido)-2-methyl-4-oxo-3,4-dihydrobenzo[b][1,4]oxazepin-5(2H)-yl)ethoxy)carbonylamino)ethylamino)-5-oxopentanoic acid hydrochloride]
– | high nM range | 258 | overall highest conversion | BQL | BQL | BQL | BQL | 8.51 | 277 | 60.7 | 5.78 | 3.67 | – | C[C@H]1Oc2ccc(F)cc2N(CCOC(=O)NCCNC(=O)[C@@H](N)CCC(=O)O)C(=O)[C@H]1NC(=O)[C@@](C)(O)C(=O)NCC(F)(F)C(F)(F)F [Compound 15b, (S)-4-amino-5-(2-((2-((2R,3S)-7-fluoro-3-((S)-2-hydroxy-2-methyl-3-oxo-3-(2,2,3,3,3-pentafluoropropylamino)propanamido)-2-methyl-4-oxo-3,4-dihydrobenzo[b][1,4]oxazepin-5(2H)-yl)ethoxy)carbonylamino)ethylamino)-5-oxopentanoic acid hydrochloride]
– | – | – | – | – | – | – | – | – | – | – | – | – | 90 | C[C@H]1Oc2ccc(F)cc2N(CCO)C(=O)[C@H]1NC(=O)C(C)(C)C(=O)NCC(F)(F)C(F)(F)F [Example 53, N-[(6R,7S)-2-Fluoro-9-(2-hydroxy-ethyl)-6-methyl-8-oxo-6,7,8,9-tetrahydro-5-oxa-9-aza-benzocyclohepten-7-yl]-2,2-dimethyl-N′-(2,2,3,3,3-pentafluoro-propyl)-malonamide]
